# Data reported in ChEMBL document CHEMBL1149262, “Monoamine transporter binding, locomotor activity, and drug discrimination properties of 3-(4-substituted-phenyl)tropane-2-carboxylic acid methyl ester isomers” (J Med Chem, 2004).
# Calls of active or inactive are those of the source. The rule behind the calls is not given here.
# Columns and labels:
# [1] = system: Rattus norvegicus; assay: Drug discrimination effect in CD Albino rat assessed as percent of rat choosing cocaine lever at 3 mg/kg, ip; type: functional; conditions: route intraperitoneal
# [2] = system: Rattus norvegicus; assay: Drug discrimination effect in CD Albino rat assessed as percent of rat choosing cocaine lever at 17 mg/kg, ip; type: functional; conditions: route intraperitoneal
# [3] = system: Mus musculus; assay: Locomotor activity in CD1 mouse assessed as stimulation at 3 mg/kg, ip after 3 hrs relative to control; type: functional; conditions: route intraperitoneal
# [4] = system: Mus musculus; assay: Locomotor activity in CD1 mouse assessed as stimulation at 1 mg/kg, ip after 2 hrs relative to control; type: functional; conditions: route intraperitoneal
# [5] = system: Mus musculus; assay: Locomotor activity in CD1 mouse assessed as stimulation at 10 mg/kg, ip after 3 hrs relative to control; type: functional; conditions: route intraperitoneal
# [6] = system: Mus musculus; assay: Activity in CD1 mouse assessed as tremor at 100 mg/kg, ip after 4 hrs; type: functional, organism-based; design: dose 100 mg/kg
# [7] = system: Mus musculus; assay: Activity in CD1 mouse assessed as hypoactivity at 100 mg/kg, ip after 4 hrs; type: functional, organism-based; design: dose 100 mg/kg
# [8] = system: Rattus norvegicus; assay: Cocaine discrimination in ip dosed CD Albino rat; type: functional
# [9] = system: Mus musculus; assay: Locomotor activity in CD1 mouse assessed as stimulation at 3 mg/kg, ip after 2 hrs relative to control; type: functional; conditions: route intraperitoneal
# [10] = target: Sodium-dependent noradrenaline transporter (Homo sapiens, UniProt P23975); assay: Displacement of [3H]nisoxetine from NET
# Chain of Sodium-dependent noradrenaline transporter (P23975 whole entry): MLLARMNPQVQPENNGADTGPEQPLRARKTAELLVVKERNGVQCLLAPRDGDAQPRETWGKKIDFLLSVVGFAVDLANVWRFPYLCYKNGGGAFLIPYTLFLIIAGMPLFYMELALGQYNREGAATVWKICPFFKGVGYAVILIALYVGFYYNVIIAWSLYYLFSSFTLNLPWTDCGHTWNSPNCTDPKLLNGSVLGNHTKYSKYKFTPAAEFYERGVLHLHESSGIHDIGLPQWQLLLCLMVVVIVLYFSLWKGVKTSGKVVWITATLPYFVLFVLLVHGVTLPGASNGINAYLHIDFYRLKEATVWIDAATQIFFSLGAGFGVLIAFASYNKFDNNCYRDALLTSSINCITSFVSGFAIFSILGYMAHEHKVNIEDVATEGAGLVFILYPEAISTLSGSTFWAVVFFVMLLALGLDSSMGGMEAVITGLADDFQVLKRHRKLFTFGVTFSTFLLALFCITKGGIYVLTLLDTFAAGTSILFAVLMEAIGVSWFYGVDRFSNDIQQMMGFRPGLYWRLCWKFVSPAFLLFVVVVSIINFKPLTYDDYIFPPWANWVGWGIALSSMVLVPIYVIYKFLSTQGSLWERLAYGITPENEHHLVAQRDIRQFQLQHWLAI
# [11] = system: Mus musculus; assay: Locomotor activity in CD1 mouse assessed as stimulation at 1 mg/kg, ip after 4 hrs relative to control; type: functional; conditions: route intraperitoneal
# [12] = system: Rattus norvegicus; assay: Drug discrimination effect in CD Albino rat assessed as percent of rat choosing cocaine lever at 10 mg/kg, ip; type: functional; conditions: route intraperitoneal
# [13] = system: Mus musculus; assay: Locomotor activity in CD1 mouse assessed as stimulation at 30 mg/kg, ip after 1 hr relative to control; type: functional; conditions: route intraperitoneal
# [14] = system: Mus musculus; assay: Activity in CD1 mouse assessed as stereotypy at 100 mg/kg, ip after 4 hrs; type: functional, organism-based; design: dose 100 mg/kg
# [15] = system: Mus musculus; assay: Locomotor activity in CD1 mouse assessed as stimulation at 10 mg/kg, ip after 4 hrs relative to control; type: functional; conditions: route intraperitoneal
# [16] = system: Mus musculus; assay: Locomotor activity in CD1 mouse assessed as stimulation at 30 mg/kg, ip after 2 hrs relative to control; type: functional; conditions: route intraperitoneal
# [17] = system: Mus musculus; assay: Activity in CD1 mouse assessed as convulsions at 100 mg/kg, ip after 4 hrs; type: functional, organism-based; design: dose 100 mg/kg
# [18] = system: Mus musculus; assay: Locomotor activity in ip dosed CD1 mouse in peak hour; type: functional
# [19] = system: Mus musculus; assay: Locomotor activity in CD1 mouse assessed as stimulation at 30 mg/kg, ip after 3 hrs relative to control; type: functional; conditions: route intraperitoneal
# [20] = system: Mus musculus; assay: Locomotor activity in CD1 mouse assessed as stimulation at 30 mg/kg, ip after 4 hrs relative to control; type: functional; conditions: route intraperitoneal
# [21] = system: Mus musculus; assay: Activity in CD1 mouse assessed as circling at 100 mg/kg, ip after 4 hrs; type: functional, organism-based; design: dose 100 mg/kg
# [22] = system: Mus musculus; assay: Activity in CD1 mouse assessed as slight or intermittent stereotypy at 10 mg/kg, ip after 4 hrs; type: functional, organism-based; design: dose 10 mg/kg
# [23] = system: Mus musculus; assay: Locomotor activity in CD1 mouse assessed as stimulation at 10 mg/kg, ip after 1 hr relative to control; type: functional; conditions: route intraperitoneal
# [24] = system: Mus musculus; assay: Locomotor activity in CD1 mouse assessed as stimulation at 10 mg/kg, ip after 2 hrs relative to control; type: functional; conditions: route intraperitoneal
# [25] = system: Mus musculus; assay: Locomotor activity in CD1 mouse assessed as stimulation at 3 mg/kg, ip after 1 hr relative to control; type: functional; conditions: route intraperitoneal
# [26] = target: Sodium-dependent serotonin transporter (Homo sapiens, UniProt P31645)
# Chain of Sodium-dependent serotonin transporter (P31645 whole entry): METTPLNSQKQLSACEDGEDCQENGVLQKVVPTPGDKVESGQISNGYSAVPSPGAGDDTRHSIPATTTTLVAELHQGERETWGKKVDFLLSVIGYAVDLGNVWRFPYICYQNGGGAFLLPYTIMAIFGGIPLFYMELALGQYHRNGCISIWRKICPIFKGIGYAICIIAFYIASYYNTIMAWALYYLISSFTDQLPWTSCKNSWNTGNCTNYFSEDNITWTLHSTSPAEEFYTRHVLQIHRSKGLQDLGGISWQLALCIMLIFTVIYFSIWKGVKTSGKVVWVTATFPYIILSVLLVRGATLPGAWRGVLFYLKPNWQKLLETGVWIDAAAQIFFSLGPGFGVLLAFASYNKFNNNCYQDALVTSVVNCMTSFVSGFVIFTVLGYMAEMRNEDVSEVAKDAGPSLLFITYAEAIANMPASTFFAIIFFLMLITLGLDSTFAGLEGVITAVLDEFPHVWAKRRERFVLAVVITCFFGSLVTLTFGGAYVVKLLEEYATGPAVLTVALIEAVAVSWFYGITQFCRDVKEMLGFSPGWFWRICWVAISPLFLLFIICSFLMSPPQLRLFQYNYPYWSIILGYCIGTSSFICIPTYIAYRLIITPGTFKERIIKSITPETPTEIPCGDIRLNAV
# Description: Displacement of [3H]paroxetine from 5HTT
# [27] = system: Mus musculus; assay: Locomotor activity in CD1 mouse assessed as stimulation at 1 mg/kg, ip after 1 hr relative to control; type: functional; conditions: route intraperitoneal
# [28] = system: Mus musculus; assay: Locomotor activity in CD1 mouse assessed as stimulation at 3 mg/kg, ip after 4 hrs relative to control; type: functional; conditions: route intraperitoneal
# [29] = system: Rattus norvegicus; assay: Drug discrimination effect in CD Albino rat assessed as percent of rat choosing cocaine lever at 5.6 mg/kg, ip; type: functional; conditions: route intraperitoneal
# [30] = system: Mus musculus; assay: Locomotor activity in CD1 mouse assessed as stimulation at 1 mg/kg, ip after 3 hrs relative to control; type: functional; conditions: route intraperitoneal
# [31] = system: Mus musculus; assay: Locomotor activity in CD1 mouse assessed as stimulation at 100 mg/kg, ip after 2 hrs relative to control; type: functional; conditions: route intraperitoneal
# [32] = system: Rattus norvegicus; assay: Drug discrimination effect in CD Albino rat assessed as percent of rat choosing cocaine lever at 1 mg/kg, ip; type: functional; conditions: route intraperitoneal
# [33] = system: Rattus norvegicus; assay: Drug discrimination effect in CD Albino rat assessed as percent of rat choosing cocaine lever at 1.7 mg/kg, ip; type: functional; conditions: route intraperitoneal
# [34] = system: Mus musculus; assay: Activity in CD1 mouse assessed as slight or intermittent hyperactivity at 100 mg/kg, ip after 4 hrs; type: functional, organism-based; design: dose 100 mg/kg
# [35] = system: Mus musculus; assay: Locomotor activity in CD1 mouse assessed as stimulation at 100 mg/kg, ip after 1 hr relative to control; type: functional; conditions: route intraperitoneal
# [36] = target: Sodium-dependent dopamine transporter (Homo sapiens, UniProt Q01959); assay: Displacement of [3H]WIN-35428 from DAT
# Chain of Sodium-dependent dopamine transporter (Q01959 whole entry): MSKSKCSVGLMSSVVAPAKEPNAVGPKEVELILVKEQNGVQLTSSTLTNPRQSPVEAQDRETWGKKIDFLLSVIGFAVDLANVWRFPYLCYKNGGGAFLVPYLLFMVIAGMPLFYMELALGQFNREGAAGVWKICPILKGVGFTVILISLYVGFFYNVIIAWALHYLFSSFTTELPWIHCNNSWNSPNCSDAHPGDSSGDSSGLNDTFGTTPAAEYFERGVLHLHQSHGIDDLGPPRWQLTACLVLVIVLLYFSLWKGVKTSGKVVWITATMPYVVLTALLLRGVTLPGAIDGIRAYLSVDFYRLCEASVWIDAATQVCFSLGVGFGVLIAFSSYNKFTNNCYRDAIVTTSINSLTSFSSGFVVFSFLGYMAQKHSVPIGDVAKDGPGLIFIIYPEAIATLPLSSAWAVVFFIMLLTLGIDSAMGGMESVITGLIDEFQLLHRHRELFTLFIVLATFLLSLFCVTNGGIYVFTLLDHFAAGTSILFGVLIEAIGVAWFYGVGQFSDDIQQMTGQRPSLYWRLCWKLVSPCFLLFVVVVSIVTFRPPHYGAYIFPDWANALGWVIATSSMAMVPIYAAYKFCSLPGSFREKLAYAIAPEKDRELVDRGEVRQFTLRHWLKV
# [37] = system: Mus musculus; assay: Locomotor activity in ip dosed CD1 mouse after 1 hr relative to cocaine; type: functional
# [38] = system: Mus musculus; assay: Locomotor activity in CD1 mouse assessed as stimulation at 100 mg/kg, ip after 4 hrs relative to control; type: functional; conditions: route intraperitoneal
# [39] = system: Mus musculus; assay: Locomotor activity in CD1 mouse assessed as stimulation at 100 mg/kg, ip after 3 hrs relative to control; type: functional; conditions: route intraperitoneal
# [40] = system: Mus musculus; assay: Activity in CD1 mouse assessed as hind limb splay at 100 mg/kg, ip after 4 hrs; type: functional, organism-based; design: dose 100 mg/kg; conditions: Hindlimb
# [41] = system: Mus musculus; assay: Activity in CD1 mouse assessed as death at 100 mg/kg, ip after 4 hrs; type: functional, organism-based; design: dose 100 mg/kg
# [42] = system: Mus musculus; assay: Activity in CD1 mouse assessed as straub tail at 100 mg/kg, ip after 4 hrs; type: functional, organism-based; design: dose 100 mg/kg
Structure (SMILES),Activity [1] [%],Activity [2] [%],Activity [3] [%],Activity [5] [%],ED50 [8] [mg/kg],Activity [9] [%],IC50 [10] [nM],Ki [10] [nM],Activity [12] [%],Activity [13] [%],Activity [15] [%],Activity [16] [%],ED50 [18] [mg/kg],Activity [19] [%],Activity [20] [%],Activity [23] [%],Activity [24] [%],Activity [25] [%],IC50 [26] [nM],Activity [28] [%],also measured
COC(=O)[C@H]1C2CCC(C[C@@H]1c1ccc(F)cc1)N2C (stereo not given in full),0,100,120,260,8.01,58,7200,4340,57,24,196,207,2.4,298,127,58,107,15,> 10000,19,Activity [4]: 5%; Activity [6]: Active; Activity [7]: Active; Activity [11]: 28%; Activity [14]: Active; Activity [17]: Active; Activity [21]: Active; Activity [22]: Active; Activity [27]: -10%; Activity [29]: 33%; Activity [30]: 52%
COC(=O)[C@@H]1C2CCC(C[C@H]1c1ccc(I)cc1)N2C (stereo not given in full),43,–,64,457,4.72,-72,52.4,32,86,308,49,121,7.7,391,25,210,100,14,64.9,-42,Activity [31]: 168%; Activity [32]: 0%; Activity [33]: 14%; Activity [34]: Active; Activity [35]: 328%; IC50 [36]: 2.9 nM; Ratio [37]: 1; Activity [38]: 124%; Ki [26]: 5.9 nM; Activity [39]: 692%; Activity [29]: 44%
COC(=O)[C@H]1C2CCC(C[C@@H]1c1ccc(I)cc1)N2C (stereo not given in full),0,80,96,85,13.5,17,760,458,14,7,40,150,9.9,268,255,17,49,19,66.3,13,Activity [40]: Active; Activity [4]: 44%; Activity [6]: Active; Activity [41]: Active; Activity [42]: Active; Activity [11]: 41%; IC50 [36]: 22.7 nM; Activity [14]: Active; Ratio [37]: 0.1; Activity [17]: Active; Activity [22]: Active; Ki [26]: 6 nM; Activity [27]: 0%; Activity [30]: 99%
